# Assay results as given in US6359054B1, “Polynucleotide compositions for intramuscular administration” (priority 1994, dated 2002).
# “And” between values parts separate entries of the source, which are not always exact repeats. Equal values may be shown once. {C11P} = undecylphosphate group; {Acr} = acridine conjugate
# Tests used:
# HSV-1 [1] = experiment: HSV-1 infectivity of medium of infected BHK cells; type: cell-based, Herpes Simplex Virus 1; settings: oligonucleotide 3.0 μM
# HSV-1 [2] = test system: HSV-1; set-up: species or system mice; settings: mouse, in vivo
substance,measurement,setting,value
"Free Anti-HSV: 12-chain oligonucleotide CGTTCCTCCTGU, 5′ undecylphosphate and 3′ acridine modified, complementary to HSV-1 splicing site (5' {C11P}, 3' {Acr}, sugars by position and backbone not given here)",HSV-1 infectious titre n = 7,HSV-1 [1],50(±14) × 10^2 CPE50/ml
same,% Survival,HSV-1 [2],7.0%
same,Survived animals/Amount of Animals in a group,HSV-1 [2],1/10 and 0/10
